Source: US9617225B2 (VIROSTATICS SRL, priority 2012, dated 2017)
Read-outs that look alike come from different tables or passages of the source.

Columns and labels:
[1] = test system: laboratory strain of HIV-1; assay: Antiviral Activity Against HIV (AV), p24 in infected activated primary T cells; assay type: cell-based; conditions: for IC50: read-out: AV50, Table 5; for antiviral and antiproliferative activity and cytotoxicity profile / anti-HIV and cytotoxicity profile: summary in words
Procedure: Antiviral Activity Against HIV (AV)
Activated primary T cells are infected with a laboratory strain of HIV-1, then cultured and exposed to different concentrations of the test compounds. HIV replication is analysed by measuring the viral protein p24 and expressed as percentage of untreated control. Inhibition of viral replication (AV) is then calculated (AV=100 minus the % p24 compared to control, AV of control=0%). Inhibitory concentration 50% for antiviral activity (AV50) is calculated.

[2] = biological target: human CDK9/CyclinT kinase complex (Homo sapiens (Human), UniProt P50750); assay: In Vitro CDK9/CyclinT Assay (IMAP fluorescent polarization); assay type: biochemical
Sequence of human CDK9/CyclinT kinase complex (P50750 whole entry): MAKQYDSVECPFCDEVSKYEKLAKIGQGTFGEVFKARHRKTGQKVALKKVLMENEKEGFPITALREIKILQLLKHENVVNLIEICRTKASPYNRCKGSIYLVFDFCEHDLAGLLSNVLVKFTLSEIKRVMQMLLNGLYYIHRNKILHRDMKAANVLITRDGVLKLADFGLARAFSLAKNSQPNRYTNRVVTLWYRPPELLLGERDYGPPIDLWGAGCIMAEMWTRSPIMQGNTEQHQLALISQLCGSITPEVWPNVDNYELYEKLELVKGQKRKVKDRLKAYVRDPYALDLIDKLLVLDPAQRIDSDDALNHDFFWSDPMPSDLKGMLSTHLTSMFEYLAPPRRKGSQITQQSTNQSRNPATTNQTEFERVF
Sequence of human CDK9/CyclinT kinase complex (O60563 whole entry partner): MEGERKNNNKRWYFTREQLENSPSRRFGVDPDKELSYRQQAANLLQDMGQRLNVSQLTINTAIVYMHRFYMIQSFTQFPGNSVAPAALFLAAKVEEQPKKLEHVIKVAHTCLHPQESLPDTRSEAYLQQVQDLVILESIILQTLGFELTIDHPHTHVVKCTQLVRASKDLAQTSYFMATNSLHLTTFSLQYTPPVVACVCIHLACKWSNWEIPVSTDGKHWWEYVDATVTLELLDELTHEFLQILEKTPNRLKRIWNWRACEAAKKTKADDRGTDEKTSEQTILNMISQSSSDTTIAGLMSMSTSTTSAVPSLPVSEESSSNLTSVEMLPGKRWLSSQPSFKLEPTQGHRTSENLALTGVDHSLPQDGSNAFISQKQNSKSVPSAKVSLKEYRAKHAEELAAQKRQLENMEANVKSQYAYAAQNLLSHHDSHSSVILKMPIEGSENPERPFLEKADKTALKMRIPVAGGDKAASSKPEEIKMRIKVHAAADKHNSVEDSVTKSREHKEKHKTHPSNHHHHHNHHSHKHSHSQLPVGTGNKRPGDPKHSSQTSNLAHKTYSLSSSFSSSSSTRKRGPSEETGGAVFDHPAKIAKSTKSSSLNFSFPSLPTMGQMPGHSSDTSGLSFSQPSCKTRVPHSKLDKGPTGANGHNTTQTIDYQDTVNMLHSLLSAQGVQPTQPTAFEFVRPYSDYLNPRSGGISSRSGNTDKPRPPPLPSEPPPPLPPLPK
Method in brief: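 Phosphorylation of 400 nM TAMRA-Rbtide (15-mer retinoblastoma-derived peptide) by 5 nM CDK9/CyclinT with 12 μM ATP (=Kmapp) in 20 mM MOPS pH 7, 1 mM DTT, 10 mM MgCl2, 0.01% Tween 20. Reaction run 1 hour at room temperature, stopped with IMAP beads; read by fluorescence polarization.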

[3] = test system: Primary T cells; assay: Cytotoxicity, viability by flow cytometry; assay type: cell-based
Procedure: Primary T cells are cultured and treated with different concentrations of the test compound. Viability is analysed by measuring through flow cytometry based techniques the percentage of viable cells, compared to untreated control=100%).

[4] = Table 4, toxic dose 50%, viable cells

Row | Compound | IC50 [2] | antiviral and antiproliferative activity and cytotoxicity profile [1] | IC50 ([2]; Table 1) | TD50 [3] | other results
1 | COc1ccc(Nc2cc(-c3ccccc3OC)ncn2)cc1CN1C(=O)c2ccccc2C1=O [Example 3, 2-(2-Methoxy-5-(6-(2-methoxyphenyl)pyrimidin-4-ylamino)benzyl)isoindoline-1,3-dione] | < 1000 nM | – | – | – | IC50 [1]: > 1000 nM; TD50 [3, 4]: >5 µM; TD50 ([3]; Table 5): >5 µM
2 | COc1ccccc1-c1cc(Nc2ccc(N(C)C)cc2)ncn1 [Example 5, N^1-(6-(2-methoxyphenyl)pyrimidin-4-yl)-N^4,N^4-dimethylbenzene-1,4-diamine] | – | good antiviral and antiproliferative activity and a good cytotoxicity profile | < 1000 nM | – | TD50 [3, 4]: >10 µM
3 | CNS(=O)(=O)Nc1cc(Nc2cc(-c3ccccc3OC)ncn2)ccc1OC [Example 10, (2-Methoxy-5-(6-(2-methoxyphenyl)pyrimidin-4-ylamino)phenyl)(methylsulfamoyl)amine] | – | good antiviral and antiproliferative activity and a good cytotoxicity profile | < 100 nM | 3 µM | –
4 | COc1ccccc1-c1cc(Nc2ccc(OC)c([N+](=O)[O-])c2)ncn1 [Example 11, N-(4-Methoxy-3-nitrophenyl)-6-(2-methoxyphenyl)pyrimidin-4-amine] | – | – | < 1000 nM | >1.5 µM | IC50 [1]: > 1500 nM; IC50 ([2]; Table 5): < 1000 nM
5 | COc1ccccc1-c1cc(Nc2ccc(O)c([N+](=O)[O-])c2)ncn1 [Example 12, 4-(6-(2-methoxyphenyl)pyrimidin-4-ylamino)-2-nitrophenol] | – | – | < 1000 nM | >1.5 µM | IC50 [1]: > 1500 nM; IC50 ([2]; Table 5): < 1000 nM
6 | COc1ccc(Nc2cc(-c3ccccc3OC)ncn2)cc1NS(=O)(=O)NC1CCCCC1 [Example 13, (2-Methoxy-5-(6-(2-methoxyphenyl)pyrimidin-4-ylamino)phenyl) (cyclohexylsulfamoyl)amine] | – | good antiviral and antiproliferative activity and a good cytotoxicity profile | < 1000 nM | 5 µM | –
7 | COc1ccccc1-c1cc(Nc2ccc(Cl)c(Cn3cnc4ccccc43)c2)ncn1 [Example 16, N-(3-((1H-benzo[d]imidazol-1-yl)methyl)-4-chlorophenyl)-6-(2-methoxyphenyl)pyrimidin-4-amine] | < 100 nM | good antiviral and antiproliferative activity and a good cytotoxicity profile | – | 1.5 µM | –
8 | COc1ccc(Nc2cc(-c3ccccc3OC)ncn2)cc1OC(=O)C(C)(C)C [Example 26, 2-methoxy-5-(6-(2-methoxyphenyl)pyrimidin-4-ylamino)phenyl pivalate] | < 10000 nM | good antiviral and antiproliferative activity and a good cytotoxicity profile | – | 6 µM | –
9 | COc1ccc(Nc2cc(-c3ccccc3OC)ncn2)cc1Cn1cnc2ccccc21 [Example 31, N-(3-((1H-Benzo[d]imidazol-1-yl)methyl)-4-methoxyphenyl)-6-(2-methoxyphenyl)pyrimidin-4-amine] | < 100 nM | good antiviral and antiproliferative activity and a good cytotoxicity profile | – | 1.8 µM | –
10 | COc1ccc(Nc2cc(-c3ccccc3OC)ncn2)cc1O [Example 32, 2-Methoxy-5-(6-(2-methoxyphenyl)pyrimidin-4-ylamino)phenol] | – | good antiviral and antiproliferative activity and a good cytotoxicity profile | < 100 nM | 20 µM | –
11 | COc1ccc(Nc2cc(-c3ccccc3OC)ncn2)cc1N [Example 41, 4-Methoxy-N1-(6-(2-methoxyphenyl)pyrimidin-4-yl)benzene-1,3-diamine] | < 1000 nM | good antiviral and antiproliferative activity and a good cytotoxicity profile | – | 8.5 µM | –
12 | COc1ccccc1-c1cc(Nc2ccc(N(C)C)c(Cn3cnc4ccccc43)c2)ncn1 [Example 42, 2-((1H-Benzo[d]imidazol-1-yl)methyl)-N4-(6-(2-methoxyphenyl)pyrimidin-4-yl)-N1,N1-dimethylbenzene-1,4-diamine] | < 1000 nM | – | – | 4 µM | IC50 [1]: > 5000 nM
13 | COc1ccc(Nc2cc(-c3ccccc3OC)ncn2)cc1CN [Example 43, N-(3-(Aminomethyl)-4-methoxyphenyl)-6-(2-methoxyphenyl)pyrimidin-4-amine] | < 1000 nM | good antiviral and antiproliferative activity and a good cytotoxicity profile | – | 2 µM | IC50 [1]: > 1000 nM
14 | COc1ccc(Nc2cc(-c3ccccc3OC)ncn2)cc1C(N)=O [Example 45, 2-methoxy-5-(6-(2-methoxyphenyl)pyrimidin-4-ylamino)benzamide] | < 100 nM | good antiviral and antiproliferative activity and a good cytotoxicity profile | – | 15 µM | –
15 | COc1ccc(Nc2cc(-c3ccccc3OC)ncn2)cc1C(=O)O [Example 49, 2-Methoxy-5-[6-(2-methoxy-phenyl)-pyrimidin-4-ylamino]-benzoic acid] | – | – | < 1000 nM | >10 µM | IC50 [1]: > 10000 nM; IC50 ([2]; Table 5): < 1000 nM
16 | COc1cc(Nc2cc(-c3ccccc3OC)ncn2)ccc1N [Example 59, 2-Methoxy-N^4-[6-(2-methoxy-phenyl)-pyrimidin-4-yl]-benzene-1,4-diamine] | – | – | < 1000 nM | >2 µM | IC50 [1]: > 2000 nM; IC50 ([2]; Table 5): < 1000 nM
17 | CCOc1ccccc1-c1cc(Nc2ccc(OC)c(N)c2)ncn1 [Example 62, N^1-[6-(2-Ethoxy-phenyl)-pyrimidin-4-yl]-4-methoxy-benzene-1,3-diamine] | – | good antiviral and antiproliferative activity and a good cytotoxicity profile | < 1000 nM | 4 µM | –
18 | COc1ccc(Nc2cc(-c3ccc(F)cc3OC)ncn2)cc1N [Example 64] | – | good antiviral and antiproliferative activity and a good cytotoxicity profile | < 1000 nM | 5 µM | IC50 ([2]; Table 5): < 1000 nM
19 | CCOc1cc(F)ccc1-c1cc(Nc2ccc(OC)c(N)c2)ncn1 [Example 73, N^1-[6-(2-Ethoxy-4-fluoro-phenyl)-pyrimidin-4-yl]-4-methoxy-benzene-1,3-diamine] | – | good antiviral and antiproliferative activity and a good cytotoxicity profile | < 1000 nM | 6 µM | –
20 | COc1ccc(Nc2cc(-c3cc(F)ccc3OC)ncn2)cc1N [Example 75, N^1-[6-(5-Fluoro-2-methoxy-phenyl)-pyrimidin-4-yl]-4-methoxy-benzene-1,3-diamine] | – | good antiviral and antiproliferative activity and a good cytotoxicity profile | < 1000 nM | 10 µM | –
21 | COc1ccc(Nc2cc(-c3ccccc3OC(C)C)ncn2)cc1N [Example 79, N^1-[6-(2-Isopropoxy-phenyl)-pyrimidin-4-yl]-4-methoxy-benzene-1,3-diamine] | – | good antiviral and antiproliferative activity and a good cytotoxicity profile | < 1000 nM | 15 µM | –
22 | COc1ccc(F)cc1-c1cc(Nc2cc(F)c(OC)c(C(N)=O)c2)ncn1 [Example 140, 3-Fluoro-5-[6-(5-fluoro-2-methoxy-phenyl)-pyrimidin-4-ylamino]-2-methoxy-benzamide] | – | – | < 10000 nM | >20 µM | –
23 | CCOc1ccc(F)cc1-c1cc(Nc2cc(C(N)=O)c(OC)cc2F)ncn1 [Example 148, 5-[6-(2-Ethoxy-5-fluoro-phenyl)-pyrimidin-4-ylamino]-4-fluoro-2-methoxy-benzamide] | – | – | < 10000 nM | 1 µM | –
24 | CN1CC[C@H](c2c(O)cc(O)c3c(=O)cc(-c4ccccc4Cl)oc23)[C@H](O)C1 [Flavopiridol, reference compound] | – | – | – | 0.1 µM | anti-HIV and cytotoxicity profile [1]: poor
25 | CC[C@H](CO)Nc1nc(NCc2ccccc2)c2ncn(C(C)C)c2n1 [Roscovitine, reference compound] | – | – | – | – | anti-HIV and cytotoxicity profile [1]: poor; TD50 [3, 4]: 8 µM
